Data set [1] can be described thus: Chemical stability assessment, 60/75 stress test, HPLC. The data set is classed as physicochemical. On the procedure: The chemical stability assessment was performed on crystalline Pattern B using a 60/75 stress test (The International Conference on Harmonisation of Technical Requirements for Registration of Pharmaceuticals for Human Use, Stability Testing of New Drug Substances and Products, Q1A(R2), 2003). Samples were exposed to 60° C./75% relative humidity condition for 2 weeks and post-stress materials were analyzed by HPLC. Data at time-zero was also collected for all samples and served as references. The following table summarizes stability data obtained (peak area % measured by HPLC) for crystalline Pattern B.

The target of data set [2] is β1 site of the 20S proteasome (Homo sapiens, UniProt P28072). The conditions noted are these: at higher concentrations; cited from earlier work.
Data set [3] concerns the target receptors. To be noted: panel of receptors; cited from earlier work.
In data set [4] the test system is kinases. The conditions noted are these: panel of kinases; cited from earlier work.
The target of data set [5] is β2 site of the 20S proteasome (Homo sapiens, UniProt Q99436). To be noted: at higher concentrations; cited from earlier work.

Broadly, the IC50 is the concentration that inhibits the measured activity by half.

For the compound `CC(C)C[C@H](NC(=O)CNC(=O)c1cc(Cl)ccc1Cl)B1OB([C@H](CC(C)C)NC(=O)CNC(=O)c2cc(Cl)ccc2Cl)OB([C@H](CC(C)C)NC(=O)CNC(=O)c2cc(Cl)ccc2Cl)O1` [Crystalline Pattern B, N,N′,N″-[2,4,6-boroxintriyltris[[(1R)-3-methylbutylidene]imino(2-oxo-2,1-ethanediyl)]]tris(2,5-dichlorobenzamide)], the “% at 1 wk (peak area % measured by HPLC)” value in data set [1] (60° C./75% relative humidity, 1 wk) is listed as 94.2%. Moreover, the “% at 2 wk (peak area % measured by HPLC)” value in data set [1] (60° C./75% relative humidity, 2 wk) amounted to 79.5%. Moreover, in data set [1] (time-zero reference), the “% at t0 (peak area % measured by HPLC)” value amounted to 99.3%.
Take `CC(C)C[C@H](NC(=O)CNC(=O)c1cc(Cl)ccc1Cl)B(O)O` [Ixazomib, [(1R)-1-({[(2,5-dichlorobenzoyl)amino]acetyl}amino)-3-methylbutyl]boronic acid]: in data set [2], the “inhibition of the activity of the β1 site” value is “inhibits the activity”. Also, the IC50 in data set [3] and in data set [4] was above 10 µM throughout. Besides, the “inhibition of the activity of the β2 site” value in data set [5] was “inhibits the activity”.
